# Data taken from patent US12168003B2, “Selective inhibition of T follicular helper cells for treatment of autoimmune disorders” (priority 2019, dated 2024).
# How the values were obtained:
# pre-existing TFH cells = settings: 75 mg/kg, mice (Sekiyama et al.); cited from earlier work
# TFH cells = experiment: OVA/Alum immunization with 4EGI-1 throughout the response; assay type: in vivo, mouse
# Experimental: Single cell suspensions were stained with a viability marker diluted 1:1000 in PBS for 10 minutes, washed in PBS, and stained with antibodies to specific cell surface markers. Viability dye, antibody clones, and dilutions used to identify these populations are detailed in Table 2. Identification of cellular subsets in mice is detailed in FIGS. 1A-1N, 3A-3C, and 6A-6C). In brief, the following gating strategy was used to identify mouse TFH cells (CD4^+ PD1^+ CXCR5^+), TFR cells (CD4^+ PD1^+ CXCR5^+ Foxp3^+), IL-21^+ CD4^+ T cells (CD4^+ VFP^3+), IL-4^+ CD4^+ T cells (CD4^+ GFP^+) OT2 T cells (CD4^+ CD45.2^+ Vβ5^+), OT2 TFH cells (CD4^+ CD45.2^+ Vβ5^+ PD1^+ CXCR5^+), 2D2 T cells (CD4^+ CD45.2^+ Vα3.2^+), TFH-like 2D2 T cells (CD4^+ CD45.2^+ […]), plasma cells (B220^− CD138^+), plasmablasts (B220^mid CD138^+), GC B cells (B220^+ GL7^+ Fas^+), Light zone GC B cells (B220^+ GL7^+ Fas^+ CD86^+), dark zone GC B cells (B220^+ GL7^+ Fas^+ CXCR4^+), IgG1 switched GC B cells (B220^+ GL7^+ Fas^+ IgG1^+), OVA-specific GC B cells (B220^+ GL7^+ Fas^+ OVA-647^+), skin neutrophils (Ly6G^+ CD11b^+), lung eosinophils (SiglecF^+CD11c^−), brain and SC CD4^+ T cells (CD45^+ CD4^+). CD4^+ T cell expression of surface ICOS, PD-1, CXCR5, CD28, SLAM, OX-40 and intranuclear BCL6 was also determined. All flow cytometry procedures were performed on a ZE5 Cell Analyzed (Bio-Rad) and analyzed using FlowJo software (TreeStar).
# OVA protein (Sigma A5503) was diluted in PBS and then in 20 mg/mL Imject Alum (ThermoFisher 77161) and mixed at room temperature for 30 minutes prior to i.p. injection of 100 μg OVA in 200 μL. When stated, mice were treated i.p. daily from day 0 to 6 or day 0 to 13 (just for TFR analysis) following OVA/Alum immunization with 25 mg/kg 4EGI-1 (MedChemExpress) or from day 7 to 13 following OVA/Alum immunization with 50 mg/kg or 75 mg/kg 4EGI-1. Vehicle control mice were administered 6 μL DMSO in 194 μL PBS i.p.
# Spleens from OVA/Alum immunized mice treated with vehicle or 4EGI-1 were harvested, embedded in OCT, and frozen immediately on dry ice. Five-micron thick cryosections were cut and fixed in acetone for 10 min. Slides were blocked with 1% BSA and stained with anti-CD4 conjugated to Alexa Fluor 647 and anti-B220 Alexa Fluor 555. Antibody clones are detailed in Table 2. Following 3 washes with PBS, slides were mounted with DAPI fluoromount (VECTASHIELD) and sealed with clear nail polish. Staining was visualized and tiled using a Zeiss 700 laser scanning inverted confocal microscope.
# B cell (Alexa fluor 555) and CD4^+ T cell (Alexa fluor 647) channels were split using FIJI, and B cell zones were manually outlined. This outline was overlaid upon the CD4^+ T cell stain and intensity of CD4^+ T cell staining within these zones was measured using FIJI and normalized to a fixed area of 500 microns
# PVDF-coated 96-well plates (Millipore) were activated with methanol for 2 minutes, washed with PBS, and coated with 4 μg/mL OVA overnight at 4° C. Plates were blocked with 1% BSA for 2 hours at 37° C. prior to incubation with 1×10^7 splenocytes in RPMI containing 2% Ultra-low IgG FCS, 55 μM 2ME, and 100 U/mL penicillin and 100 μg/mL streptomycin in the top well. Cells were diluted by 1/2 each row going down the plate and incubated immobile overnight at 37° C. Plates were washed with water+0.05% Tween 20 for 5 min prior to 3 washes in PBS+0.05% Tween-20 for 10 minutes. Plates were incubated with 1:1000 HRP-coupled goat anti-mouse IgG1 antibody (Southern Biotech) in PBS+0.05% Tween 20 for 2 h prior to 3 washes in PBS+0.05% Tween 20 and incubation in tetramethylbenzidine (TMB) ELISA substrate buffer (ThermoFisher). Plates were washed once in distilled deionized water and spots were manually enumerated and antibody-secreting cells (ASC) per million splenocytes was determined.
# For quantification of OVA-specific IgG1, high-binding 96-well plates (Costar) were coated with 10 μg/mL OVA protein. […]
# [1] = cytokine reporter mice, OVA-Alum immunization
smiles,measurement,setting,value
O=C(O)C(Cc1ccccc1[N+](=O)[O-])=NNc1nc(-c2ccc(Cl)c(Cl)c2)cs1 (mixture of isomers) [4EGI-1],safety of the dose,pre-existing TFH cells,within its safety range
same,reduction of TFH cells in spleen,"TFH cells; 25 mg/kg daily, OVA/Alum, day 7",3.5 fold
same,overall CD4+ T cell numbers,"TFH cells; 25 mg/kg daily, OVA/Alum, spleen, day 7",did not alter
same,CD4+ T cell activation (CD44high),"TFH cells; 25 mg/kg daily, OVA/alum",did not affect
same,CD4+ T cell division,"TFH cells; 25 mg/kg daily, OVA/alum",did not affect
same,CD4+ T cell expression of CD28,"TFH cells; 25 mg/kg daily, OVA/alum",decreased by half
same,CD4+ T cell expression of OX40,"TFH cells; 25 mg/kg daily, OVA/alum",not affected
same,CD4+ T cell expression of SLAM,"TFH cells; 25 mg/kg daily, OVA/alum",decreased by half
same,levels of expression of ICOS on CD4+ T cells,"TFH cells; 25 mg/kg daily, OVA/alum",did not affect
same,reduction of expression of PD-1 on splenic CD4+ T cells,"TFH cells; 25 mg/kg daily, OVA/alum",more than half
same,reduction of expression of intranuclear BCL6 in splenic CD4+ T cells,"TFH cells; 25 mg/kg daily, OVA/alum",more than half
same,reduction of expression of surface CXCR5 on splenic CD4+ T cells,"TFH cells; 25 mg/kg daily, OVA/alum",more than half
same,infiltration of CD4+ T cells in B cell zones,"TFH cells; 25 mg/kg daily, OVA/alum, splenic sections",almost abolished
same,reduction of TFR cells,"TFH cells; 4EGI-1 for 14 days, measured at day 14, OVA/Alum",3 fold
same,serum OVA-specific IgG1 antibody,"TFH cells; OVA/Alum, ELISA",reduced by half
same,OVA-specific IgG1 antibody secreting cells (ASCs),"TFH cells; OVA/Alum, ELISPOT, splenocytes",almost abolished
same,decrease of GC B cells in the CD86+ light zone (LZ),"TFH cells; OVA/Alum, spleen, day 7",3 fold
same,decrease of GC B cells in the CXCR4+ dark zone (DZ),"TFH cells; OVA/Alum, spleen, day 7",3 fold
same,decrease of GC B cells that are class switched IgG1+,"TFH cells; OVA/Alum, spleen, day 7",3 fold
same,decrease of OVA-specific GC B cells,"TFH cells; OVA/Alum, spleen, day 7",3 fold
same,decrease of number of total GC B cells,"TFH cells; OVA/Alum, spleen, day 7",3 fold
same,reduction of number of total plasma cells,"TFH cells; OVA/Alum, spleen, day 7",2 fold
same,reduction of number of total plasmablasts,"TFH cells; OVA/Alum, spleen, day 7",2 fold
same,decrease of total number of CD4+ T cells producing IL-4 (GFP+) in the spleen,TFH cells; [1],2.5 fold
same,decrease of total number of CD4+ T cells producing IL-21 (VFP+) in the spleen,TFH cells; [1],2.5 fold
